Laboratory results: patent US20040209775A1, “Herbicidal composition” (priority 2001, published 2004)

Tests used:
Experiment in all cases: Post-emergence test, greenhouse
Format in all cases: in vivo
Galium aparine = conditions: evaluation 20 days after application
From the text: (§1) The herbicidal action to be expected We for a given combination of two herbicides can be calculated as follows (see COLBY, S. R., “Calculating synergistic and antagonistic response of herbicide combinations”, Weeds 15, pages 20-22, 1967):
(§2) Post-emergence application of mixtures of a herbicide of formula I wherein R is CH3; R1 is 4-fluorine; R2 is 3-acetonitrile; and R3 and R4 are hydrogen (=herbicide no. 11) with the co-herbicide dicamba at 500 g/ha and 30 g/ha, respectively, in Table B1, and of a herbicide of formula I wherein R is CH3; R1 is 4-fluorine; R2 is 3-acetonitrile; and R3 and R4 are hydrogen (=herbicide no. I1) with the co-herbicide triasulfuron at 250 g/ha and 3.75 g.ha, respectively, in Table B2.
(§3) The test plants are grown to the 2- to 3-leaf stage in plastics pots under greenhouse conditions. A standard soil is used as cultivation substrate. At the 2- to 3-leaf stage, the herbicides are applied to the test plants on their own and as a mixture. The application is carried out using an aqueous suspension of the test compounds in 500 litres of water/ha. The rates of application depend on the optimum doses ascertained under field conditions and greenhouse conditions. […]

winter wheat = tested on: winter wheat
From the text: as §1, §2, §3

Raphnus raphanistrum = conditions: I1 500, dicamba 30, mixture 500 + 30 g a.i./ha, evaluation 20 days after application
Method: (§4) The herbicidal action to be expected We for a given combination of two herbicides can be calculated as follows (see COLBY, S. R., “Calculating synergistic and antagonistic response of herbicide combinations”, Weeds 15, pages 20-22, 1967): […] Post-emergence application of mixtures of a herbicide of formula I wherein R is CH3; […] R2 is 3-acetonitrile; and R3 and R4 are hydrogen (=herbicide no. […] The test plants are grown to the 2- to 3-leaf stage in plastics pots under greenhouse conditions. A standard soil is used as cultivation substrate. At the 2- to 3-leaf stage, the herbicides are applied to the test plants on their own and as a mixture. The application is carried out using an aqueous suspension of the test compounds in 500 litres of water/ha. The rates of application depend on the optimum doses ascertained under field conditions and greenhouse conditions.

Stellaria media = conditions: I1 500, dicamba 30, mixture 500 + 30 g a.i./ha, evaluation 20 days after application
Method: as §4

Veronica persica = conditions: I1 500, dicamba 30, mixture 500 + 30 g a.i./ha, evaluation 20 days after application
Method: as §4

Viola tricolor = conditions: I1 500, dicamba 30, mixture 500 + 30 g a.i./ha, evaluation 20 days after application
Method: as §4

winter barley = conditions: I1 500, dicamba 30, mixture 500 + 30 g a.i./ha, evaluation 20 days after application
Method: as §4

Capsella bursa-pastoris = conditions: I1 250, triasulfuron 3.5, mixture 250 + 3.75 g a.i./ha, evaluation 20 days after application
From the text: as §1, §2, §3

Kochia scoparia = conditions: I1 250, triasulfuron 3.5, mixture 250 + 3.75 g a.i./ha, evaluation 20 days after application
From the text: as §1, §2, §3

Lamium purpureum = conditions: I1 250, triasulfuron 3.5, mixture 250 + 3.75 g a.i./ha, evaluation 20 days after application
From the text: as §1, §2, §3

Matricaria chamomilla = conditions: I1 250, triasulfuron 3.5, mixture 250 + 3.75 g a.i./ha, evaluation 20 days after application
From the text: as §1, §2, §3

Polygonum convolvulus = conditions: I1 250, triasulfuron 3.5, mixture 250 + 3.75 g a.i./ha, evaluation 20 days after application
From the text: as §1, §2, §3

hard wheat = conditions: I1 250, triasulfuron 3.5, mixture 250 + 3.75 g a.i./ha, evaluation 10 days after application
From the text: as §1, §2, §3

Row | SMILES | % action, Galium aparine (Galium aparine; I1 500, dicamba 30, mixture 500 + 30 g a.i./ha) [%] | % action, Wheat (winter wheat; I1 500, dicamba 30, mixture 500 + 30 g a.i./ha, evaluation 20 days after application, 100%=plant has died) [%] | % action, Raphnus raphan. (Raphnus raphanistrum) [%] | % action, Stellaria media (Stellaria media) [%] | % action, Veronica persica (Veronica persica) [%] | % action, Viola tric. (Viola tricolor) [%] | % action, Barley (winter barley) [%] | % action, Caps. bursa-past. (Capsella bursa-pastoris) [%] | % action, Gal. apar. (Galium aparine; I1 250, triasulfuron 3.5, mixture 250 + 3.75 g a.i./ha) [%] | % action, Kochia scop. (Kochia scoparia) [%] | % action, Lamium purpur. (Lamium purpureum) [%] | % action, Matr. cham. (Matricaria chamomilla) [%] | % action, Polyg. conv. (Polygonum convolvulus) [%] | % action, H. wheat (hard wheat) [%] | % action, W. wheat (winter wheat; I1 250, triasulfuron 3.5, mixture 250 + 3.75 g a.i./ha, evaluation 10 days after application) [%]
1 | COc1c(Cl)ccc(Cl)c1C(=O)O [dicamba] | 40 | 0 | 20 | 20 | 20 | 0 | 10 |  |  |  |  |  |  |  | 
2 | COc1nc(C)nc(NC(=O)NS(=O)(=O)c2ccccc2OCCCl)n1 [triasulfuron] |  |  |  |  |  |  |  | 98 | 70 | 95 | 90 | 95 | 80 | 0 | 0
